Source: patent US10407408B2, “Imide derivatives and use thereof as medicine” (MITSUBISHI TANABE PHARMA CORPORATION, priority 2015, dated 2019)

Legend:
[1] = tested on: mouse dextran sulfuric acid induced colitis model; test: Suppressive action on enteritis score (Disease Activity Index, DAI) of mouse dextran sulfuric acid induced colitis model; assay type: in vivo; settings: mouse (C57BL/6J), oral, 30 mg/kg twice per day until day 10; AUC of DAI on days 3, 5, 7 and 10; pathology group 11.75 ± 1.18
Protocol: Experimental Example 4 Suppressive Action on Enteritis Score (Disease Activity Index, DAI) of Mouse Dextran Sulfuric Acid Induced Colitis Model
Mice (C57BL/6J, male, 6-week-old) were allowed to freely ingest 2.0% (w/v) dextran sulfuric acid solution for 5 days, the solution was exchanged with water, and pathology was evaluated on day 10. The test compound was orally administered twice per day at a dose of 30 mg/kg for 5 days of dextran sulfuric acid solution ingestion and thereafter until day 10. On days 3, 5, 7 and 10 from the start of the test, the body weight decrease, stool consistency, and the state of occult blood or gross bleeding were respectively scored in 0-4 points, and the mean of the total score was taken as Disease Activity Index (DAI), an index of enteritis pathology. The diagnostic criteria of the stool consistency score and occult blood or gross bleeding score were as follows.
The evaluation results are shown by the area under the curve (AUC) calculated using DAI on days 3, 5, 7 and 10.

[2] = tested on: proMMP-9 production by human TNFα stimulated THP-1 cell; test: Action on proMMP-9 production by human TNFα stimulated THP-1 cell (ELISA of culture supernatant); assay type: cell-based; settings: THP-1 cells, human TNFα 10 ng/mL, 24 hr; IC50 from 3 concentrations (5, 50, 500 or 1, 10, 100 nmol/L); read-out: proMMP-9 suppression rate IC50
Protocol: Experimental Example 1: Action of Human TNFα Stimulated THP-1 Cell on proMMP-9 Production
(§1) THP-1 cell (human monocytic leukemia cell line) was adjusted to 1×10^7 cells/mL in a culture medium (10% fetal bovine serum/RPMI1640 medium), and dispensed to a 96 well multiplate. This was equilibrated under the conditions of 37° C./5% CO2, and a culture medium containing human TNFα (final concentration 10 ng/mL) and a test compound was dissolved therein. After incubation under the conditions of 37° C./5% CO2 for 24 hr, the culture medium was centrifuged and the culture supernatant was collected, which was subjected to the following measurement.
Quantification of proMMP-9 in Culture Supernatant
The proMMP-9 concentration of the collected culture supernatant was quantified using a commercially available measurement reagent (manufactured by GE Healthcare, MMP-9, Human, Biotrak ELISA System).
Calculation of proMMP-9 Suppression Rate
The proMMP-9 suppression rate of the test compound was calculated from the following formula: % suppression=100−((Test−Min)/(Max−Min)×100) wherein Max is proMMP-9 concentration of culture supernatant induced by stimulation with human TNFα, without addition of a test compound (added with solvent alone) Min is proMMP-9 concentration of culture supernatant without addition of a test compound (added with solvent alone) and without stimulation with human TNFα, and Test is proMMP-9 concentration of culture supernatant induced by stimulation with human TNFα when a test compound is added.
Furthermore, the concentration of the test compound necessary for suppressing proMMP-9 production by human TNFα stimulated THP-1 cell by 50% (IC50 value) was calculated from 3 points of proMMP-9 suppression rate at test compound concentrations of 5, 50 and 500 nmol/L or 1, 10 and 100 nmol/L.
MMP-9 is produced as a precursor proMMP-9 by the stimulated cells, extracellularly activated and expresses the physiological activity as MMP-9. That is, evaluation of the suppression of proMMP-9 produced by the cell means evaluation of the suppression of production of MMP-9. The same applies to MMP-2, and evaluation of the suppression of proMMP-2 produced by the cell means evaluation of the suppression of production of MMP-2.

[3] = tested on: rat monoiodoacetic acid-induced osteoarthritis model; test: Suppressive action on joints injury marker COMP in rat monoiodoacetic acid-induced osteoarthritis model; assay type: in vivo; settings: for Joints injury marker COMP suppression rate (%): oral
Protocol: Experimental Example 3 Suppressive Action on Articular Joints Injury Marker Free of Rat Monoiodoacetic Acid-Induced Osteoarthritis Model
Monoiodoacetic acid solution (0.3 mg/25 μL) was injected into the right hindpaw knee joint cavity of anesthetized rats (LEW, male, 7-week-old). […] On day 5, cold phosphate buffer (20 μL) was injected into the right hindpaw knee joint cavity of the euthanized rats, and the joint cavity washing was collected. The joints injury marker COMP (Cartilage Oligomeric Matrix Protein) concentration of the joint cavity washing was quantified using a commercially available measurement reagent (Animal COMP ELISA Kit manufactured by Anamer Medical).
Calculation of Joints Injury Marker COMP Suppression Rate
The COMP suppression rate of the test compound was calculated from the following formula: % suppression=100−((Test−Min)/(Max−Min)×100) wherein Max is a COMP concentration of the joint cavity washing of the pathology group administered with a monoiodoacetic acid solution (oral administration of solvent alone), Min is a COMP concentration of the joint cavity washing of the non-treatment normal group (oral administration of solvent alone), and Test is a COMP concentration of the joint cavity washing of the test compound administration group.

[4] = tested on: proMMP-2 production by THP-1 cell; test: Action on hemostatic type proMMP-2 production by THP-1 cell (ELISA of culture supernatant); assay type: cell-based; settings: Homo sapiens; THP-1 cells, no stimulation, 24 hr; IC50 from 0.1, 1 and 10 μmol/L; read-out: IC50 value (μmol/L), proMMP-2 production suppression
Protocol: Experimental Example 2: Action of THP-1 Cell on Hemostatic Type proMMP-2 Production
as §1, with “dissolving” for “containing human TNFα (final concentration 10 ng/mL) and”, “added thereto.” for “dissolved therein.”
Quantification of proMMP-2 in Culture Supernatant
The proMMP-2 concentration of the collected culture supernatant was quantified using a commercially available measurement reagent (manufactured by GE Healthcare, MMP-2, Human, Biotrak ELISA System).
Calculation of proMMP-2 Suppression Rate
The proMMP-2 suppression rate of the test compound was calculated from the following formula: % suppress=100−((Test/Cont)×100). wherein Cont is proMMP-2 concentration of culture supernatant without addition of a test compound (added with solvent alone) and Test is proMMP-2 concentration of culture supernatant with addition of a test compound. […]

IC50 [2] [nM]	SMILES	further results
27	Cc1cnc(N2CCN(C(=O)c3ccc([C@@]4(C)NC(=O)NC4=O)cc3)CC2)c(C)c1 [Example 1, (R)-5-{4-[4-(3,5-dimethylpyridin-2-yl)piperazine-1-carbonyl]phenyl}-5-methylimidazolidine-2,4-dione]	DAI (AUC) [1]: 9.78 ± 0.80; Joints injury marker COMP suppression rate (%) ([3]; rat (LEW), 1 mg/kg once per day, joint cavity washing on day 5): 80.9%; superiority in joints injury marker COMP suppression rate compared with Example 450 described in patent document 3 ([3]; rat monoiodoacetic acid model, both at 1 mg/kg once per day): at least 5 fold; IC50 [4]: > 10 µmol/L
–	Cc1cnc(N2CCN(C(=O)c3ccc([C@@]4(C(C)C)NC(=O)NC4=O)cc3)CC2)c(C)c1 [Example 8, (R)-5-{4-[4-(3,5-dimethylpyridin-2-yl)piperazine-1-carbonyl]phenyl}-5-isopropylimidazolidine-2,4-dione]	Joints injury marker COMP suppression rate (%) ([3]; rat (LEW), 0.1 mg/kg once per day, joint cavity washing on day 5): 84.3%; superiority in joints injury marker COMP suppression rate compared with Example 571 described in patent document 3 ([3]; rat monoiodoacetic acid model, 0.1 mg/kg versus 3 mg/kg once per day): at least 30 fold
27	CC(C)[C@]1(c2ccc(C(=O)N3CCN(c4nc5ccccc5n4C)CC3)cc2)NC(=O)NC1=O [Example 243, (R)-5-isopropyl-5-{4-[4-(l-methyl-1H-benzimidazol-2-yl)piperazine-1-carbonyl]phenyl}imidazolidine-2,4-dione]	–
60	CC(C)[C@]1(c2ccc(C(=O)N3CCC(c4ncc(-c5ccccc5)s4)CC3)cc2)NC(=O)NC1=O [Example 259, (R)-5-isopropyl-5-{4-[4-(5-phenylthiazol-2-yl)piperidine-1-carbonyl]phenyl}imidazolidine-2,4-dione]	–
13	CC(C)[C@]1(c2ccc(C(=O)N3CCC(c4nc5cc(C(F)(F)F)ccc5s4)CC3)cc2)NC(=O)NC1=O [Example 262, (R)-5-isopropyl-5-{4-[4-(5-trifluoromethylbenzothiazol-2-yl)piperidine-1-carbonyl]phenyl}imidazolidine-2,4-dione]	–
5	Cc1ccc2nc(C3CCN(C(=O)c4ccc([C@@]5(C)NC(=O)NC5=O)cc4)CC3)oc2c1 [Example 267, (R)-5-methyl-5-{4-[4-(6-methylbenzoxazol-2-yl)piperidine-1-carbonyl]phenyl}imidazolidine-2,4-dione]	–
< 5	Cc1cc(C)c2c(cnn2C2CCN(C(=O)c3ccc([C@@]4(C(C)C)NC(=O)NC4=O)cc3)CC2)c1 [Example 272, (R)-5-{4-[4-(5,7-dimethylindazol-1-yl)piperidine-1-carbonyl]phenyl}-5-isopropylimidazolidine-2,4-dione]	–
< 5	Cc1cc(F)c2c(C3CCN(C(=O)c4ccc([C@@]5(C)NC(=O)NC5=O)cc4)CC3)n[nH]c2c1 [Example 280, (R)-5-{4-[4-(4-fluoro-6-methyl-1H-indazol-3-yl)piperidine-1-carbonyl]phenyl}-5-methylimidazolidine-2,4-dione]	–
< 1	Cc1cc(C2CC2)cnc1N1CCN(C(=O)c2ccc(C3(C4CCC4)NC(=O)NC3=O)cc2)CC1 (stereo not drawn) [Example 322, 5-cyclobutyl-5-{4-[4-(5-cyclopropyl-3-methylpyridin-2-yl)piperazine-1-carbonyl]phenyl}imidazolidine-2,4-dione]	–
1	Cc1cnc(N2CCN(C(=O)c3ccc(C4(C(C)(C)C)NC(=O)NC4=O)cn3)CC2)c(C)c1 (stereo not drawn) [Example 335, 5-tert-butyl-5-{6-[4-(3,5-dimethylpyridin-2-yl)piperazine-1-carbonyl]pyridin-3-yl}imidazolidine-2,4-dione]	–
< 3	COCC1(c2ccc(C(=O)N3CCC(c4coc5cc(C)cc(C)c45)CC3)cn2)CC(=O)NC1=O (stereo not drawn) [Example 343, 3-{5-[4-(4,6-dimethyl-benzofuran-3-yl)piperidine-1-carbonyl]pyridin-2-yl}-3-methoxymethyl-pyrrolidine-2,5-dione]	–
15	Cc1ccc2c(C3CCN(C(=O)c4ccc([C@@]5(C)NC(=O)NC5=O)cc4)CC3)c[nH]c2c1 [Example 345, (R)-5-methyl-5-{4-[4-(6-methyl-1H-indol-3-yl)piperidine-1-carbonyl]phenyl}imidazolidine-2,4-dione]	–
88	Cc1ccc(-c2cnn(C3CCN(C(=O)c4ccc([C@@]5(C)NC(=O)NC5=O)cc4)CC3)c2)cc1 [Example 346, (R)-5-methyl-5-{4-[4-(4-p-toluylpyrazol-1-yl)piperidine-1-carbonyl]phenyl}imidazolidine-2,4-dione]	–
115	CC(=O)OCN1C(=O)N[C@](C)(c2ccc(C(=O)N3CCC(n4cc5cc(C)cc(C)c5n4)CC3)cc2)C1=O [Example 350, acetic acid (R)-4-{4-[4-(5,7-dimethylindazol-2-yl)piperidine-1-carbonyl]phenyl]-4-methyl-2,5-dioxoimidazolidin-1-ylmethyl ester]	–
–	Cc1cnc(N2CCN(C(=O)c3ccc(N4C(=O)NC(=O)C4C)cc3)CC2)c(C)c1 (stereo not drawn) [Example 450, reference compound]	Joints injury marker COMP suppression rate (%) ([3]; comparison compound of patent document 3 (WO 2011/136292), rat, 1 mg/kg once per day): 14.4%
–	Cc1cnc(N2CCN(C(=O)c3ccc(N4C(=O)NC(=O)C4C(C)C)cc3)CC2)c(C)c1 (stereo not drawn) [Example 571, reference compound]	Joints injury marker COMP suppression rate (%) ([3]; comparison compound of patent document 3 (WO 2011/136292), rat, 3 mg/kg once per day): 55.3%
